Consider 16 compounds from article PMC9612054, “Experimental and Computational Analysis of Newly Synthesized Benzotriazinone Sulfonamides as Alpha-Glucosidase Inhibitors” (Molecules, 2022).

By IC50 is commonly meant the concentration needed to halve the response being measured. What is called melting point is the temperature of the solid-liquid transition. As a reminder, the inhibition is the relative decrease from the control value, in per cent. Usually % Inhibition stands for the relative decrease from the control value, in per cent. A lower % Inhibition goes with a response near the control.

A short description of series [1]: Solubility (physiochemical properties). The note with it: solvents in which the compound is soluble. Type of series: physicochemical.
The next series addresses alpha-glucosidase. Details: method as in doi:10.1007/s00044-022-02883-1. The note with it: earlier series; cited from earlier work.
Series [2] deals with T1, alpha-Glucosidase (Cat No. 5003-1KU Type I) (Saccharomyces cerevisiae, UniProt P53341).
T1 construct: purchased 5003-1KU Type I
In words: biochemical. The following applies: for inhibition at 500 µM: pH 6.8, read-out: % Inhibition at 0.5 mM. As to the method: It actively works in the intestinal tract by inhibiting alpha-glucosidase, which is responsible for the conversion of complex carbohydrates to absorbable glucose. […] Therefore, an alpha-glucosidase inhibition assay of newly synthesized amino benzotriazinones 11a–11b and their corresponding sulfonamides 12a–12f was carried out by spectrophotometric method.
Alpha-glucosidase inhibition activity was carried out by the Pierre et al. method with slight modifications, and alpha-Glucosidase (Cat No. 5003-1KU Type I) from Saccharomyces cereviciae was utilized for the experimental protocol due to its resemblances to the structure and function of yeast/mammalian enzyme. For test, saline phosphate buffer (70 μL, 50 mM with pH 6.8), alpha-glucosidase enzyme (10 μL, 0.0234 units) and test compound (10 μL, 0.5 mM) were taken in test tubes and incubated for 10 min at 37 °C. Absorbance of these prepared samples was recorded at 400 nm. 10 μL p-nitrophenyl-alpha-D-glucopyranoside (0.5 mM, ‘substrate’, code No. N1377 from Sigma) was used to initiate the reaction and test tubes were allowed to stand for 30 min. Then, the variation in concentration of free substrate was noted by the change in absorbance. The enzyme percentage inhibition was estimated by the following formula and IC50 values were calculated by ‘EZ-Fit enzyme kinetics software. % Inhibition = [([…])/Abs. of control] × 100

T1 sequence (P53341 whole entry): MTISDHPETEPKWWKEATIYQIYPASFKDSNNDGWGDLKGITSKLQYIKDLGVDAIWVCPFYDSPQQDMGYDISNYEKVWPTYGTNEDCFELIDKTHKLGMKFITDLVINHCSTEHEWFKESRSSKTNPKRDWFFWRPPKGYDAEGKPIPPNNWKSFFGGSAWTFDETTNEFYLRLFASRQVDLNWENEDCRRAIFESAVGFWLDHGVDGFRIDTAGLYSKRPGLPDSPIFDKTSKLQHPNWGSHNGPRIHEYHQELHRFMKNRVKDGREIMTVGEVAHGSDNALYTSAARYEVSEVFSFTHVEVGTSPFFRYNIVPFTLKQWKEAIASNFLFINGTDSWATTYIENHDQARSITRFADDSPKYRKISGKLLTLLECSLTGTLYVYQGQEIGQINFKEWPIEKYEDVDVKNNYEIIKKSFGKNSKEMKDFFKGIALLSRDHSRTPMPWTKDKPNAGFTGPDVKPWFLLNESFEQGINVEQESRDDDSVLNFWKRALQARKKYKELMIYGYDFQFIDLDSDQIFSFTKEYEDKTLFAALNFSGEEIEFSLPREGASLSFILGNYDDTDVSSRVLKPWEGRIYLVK

6-Nitroisatoic Anhydride [Compound 8]: the Solubility entry in series [1] is listed as “Ethanol, DMSO”.

Take `Cc1ccc(NS(=O)(=O)c2ccc(-n3nnc4ccccc4c3=O)cc2)cc1C` [Compound 4]: the IC50 on alpha-glucosidase is 29.75 ± 0.14 µM.

`CCCNC(=O)c1cc([N+](=O)[O-])ccc1N` [Compound 9a, 2-Amino-5-nitro-N-propylbenzamide]: the melting point is 195 to 197 °C. For the same compound, in series [1], the Solubility entry was “Ethanol, DMSO”.

The compound `CCCCNC(=O)c1cc([N+](=O)[O-])ccc1N` [Compound 9b, 2-Amino-5-nitro-N-butylbenzamide] gave a melting point of 197 to 199 °C. Besides, the Solubility result in series [1] is listed as “Ethanol, DMSO”.

Take `CCCn1nnc2ccc([N+](=O)[O-])cc2c1=O` [Compound 10a, 6-Nitro-3-propylbenzo[1,2,3]triazin-4(3H)-one]: the melting point fell in the range of 215 to 217 °C. Moreover, the Solubility result in series [1] was “Ethanol, DMSO”.

As for `CCCCn1nnc2ccc([N+](=O)[O-])cc2c1=O` [Compound 10b, 6-Nitro-3-butylbenzo[1,2,3]triazin-4(3H)-one], the melting point lay within 217 to 218 °C. Besides, in series [1], the Solubility entry is recorded as “Ethanol, DMSO”.

For `CCCn1nnc2ccc(N)cc2c1=O` [Compound 11a, 6-Amino-3-propylbenzo[1,2,3]triazin-4(3H)-one], the melting point fell in the range of 185 to 186 °C. The Solubility result in series [1] is “Methanol, DMSO”. Moreover, the inhibition at 500 µM in series [2] came to 26.12 ± 0.13%.

The compound `CCCCn1nnc2ccc(N)cc2c1=O` [Compound 11b, 6-Amino-3-butylbenzo[1,2,3]triazin-4(3H)-one] showed a melting point of 191 to 192 °C. Moreover, the Solubility entry in series [1] is reported as “Methanol, DMSO”. Besides, the inhibition at 500 µM in series [2] came out at 27.12 ± 0.13%.

Compound `CCCn1nnc2ccc(NS(=O)(=O)c3ccccc3)cc2c1=O` [Compound 12a, N-(4-Oxo-3-propyl-3,4-dihydrobenzo[1,2,3]triazin-6-yl)benzenesulfonamide] had a melting point of 171 to 173 °C. In series [1], the Solubility result is listed as “Ethanol, DMSO”. Besides, in series [2], the inhibition at 500 µM worked out at 51.25 ± 0.16%.

Compound `CCCn1nnc2ccc(NS(=O)(=O)c3ccc(OC)cc3)cc2c1=O` [Compound 12b, 4-Methoxy-N-(4-oxo-3-propyl-3,4-dihydrobenzo[1,2,3]triazin-6-yl)benzenesulfonmide] had a melting point of 175 to 177 °C. In addition, in series [1], the Solubility entry is listed as “Ethanol, DMSO”. In addition, in series [2], half-maximal inhibition (IC50) was put at 39.21 ± 0.12 µM and the inhibition at 500 µM was 91.73 ± 0.17%.

Compound `CCCn1nnc2ccc(NS(=O)(=O)c3ccc(Cl)cc3)cc2c1=O` [Compound 12c, 4-Chloro-N-(4-oxo-3-propyl-3,4-dihydrobenzo[1,2,3]triazin-6-yl)benzenesulfonamide] yielded a melting point of 169 to 171 °C. Also, the Solubility result in series [1] is reported as “Ethanol, DMSO”. In addition, in series [2], the IC50 is 53.76 ± 0.14 µM and the inhibition at 500 µM was found to be 78.12 ± 0.16%.

For the compound `CCCn1nnc2ccc(NS(=O)(=O)c3ccc(Br)cc3)cc2c1=O` [Compound 12d, 4-Bromo-N-(4-oxo-3-propyl-3,4-dihydrobenzo[1,2,3]triazin-6-yl)benzenesulfonamide], the Solubility entry in series [1] is on record as “Ethanol, DMSO”. In series [2], the midpoint of inhibition, the IC50, lay at 55.21 ± 0.12 µM and the inhibition at 500 µM was found to be 79.42 ± 0.15%.

Compound `CCCn1nnc2ccc(NS(=O)(=O)c3ccc([N+](=O)[O-])cc3)cc2c1=O` [Compound 12e, 4-Nitro-N-(4-oxo-3-propyl-3,4-dihydrobenzo[1,2,3]triazin-6-yl)benzenesulfonamide] had a melting point of 167 to 169 °C. The Solubility entry in series [1] was “Ethanol, DMSO”. In series [2], the IC50 was determined as 32.37 ± 0.15 µM and the inhibition at 500 µM turned out to be 96.27 ± 0.19%.

`CCCCn1nnc2ccc(NS(=O)(=O)c3ccc([N+](=O)[O-])cc3)cc2c1=O` [Compound 12f, 4-Nitro-N-(4-oxo-3-butyl-3,4-dihydrobenzo[1,2,3]triazin-6 yl)benzenesulfonamide] returned a melting point of 179 to 181 °C. For the same compound, the Solubility entry in series [1] is reported as “Ethanol, DMSO”. In series [2], half-maximal inhibition (IC50) was put at 37.75 ± 0.11 µM and the inhibition at 500 µM is 93.27 ± 0.14%.

For the compound `C[C@H]1O[C@H](O[C@H]2[C@H](O)[C@@H](O)[C@@H](O[C@H]3[C@H](O)[C@@H](O)C(O)O[C@@H]3CO)O[C@@H]2CO)[C@H](O)[C@@H](O)[C@@H]1N[C@H]1C=C(CO)[C@@H](O)[C@H](O)[C@H]1O` (stereo partly shown) [acarbose, reference compound], the “% Inhibition at 0.5 mM” value in series [2] (test compound 0.5 mM, pH 6.8, 37 °C) stood at 92.23 ± 0.16%.

On to Isatoic Anhydride [Compound 7], for which, in series [1], the Solubility entry is recorded as “Ethanol, DMSO”.
